Measurements taken from patent US20080085888A1, “Therapeutic Combinations” (priority 2006, published 2008).

Key:
rodent = details: cited from earlier work; for effect on haloperidol-induced catalepsy: Levin and Lippiello 1999
male Long Evans rats = assay: Blockade of D-amphetamine-induced locomotor activity (LMA); type: in vivo, rat; details: for attenuation of amphetamine-induced locomotor activity: D-amphetamine 1 mg/kg s.c.
male, Long Evans rats = assay: Spontaneous locomotor activity (sLMA), quetiapine-induced sedation
Excerpt: I. Attenuation of Quetiapine-Induced Sedation Using Spontaneous Locomotor Activity (sLMA)
Quetiapine is known to have sedative properties in humans. Quetiapine can induce sedation in rats and is manifested in various behaviors including reductions in spontaneous locomotor activity (sLMA). A test compound that increases sLMA in quetiapine treated rats may reduce quetiapine-induced sedation in human subjects.
The general procedure was to assess the effect of a particular drug on sLMA in rats by administering the drug after baseline assessment and then waiting an appropriate amount of time for the drug to achieve significant levels in plasma and brain.
Quetiapine was solubilized in saline plus some drops of 85% lactic acid and sonicated for around 20-30 minutes then adjusted with NaOH 1N for pH ˜4.8 to 5.0. The solution was stirred during the experiment to ensure uniform composition prior to administration. Quetiapine was administered by s.c. injection 15 minutes before testing. The dose volume was 4 ml/kg.
Compound b was dissolved in H2O and administered by oral gavage (p.o.) 30 minutes before testing with a dose volume of 1 ml/kg.
The effect of Compound b alone on sLMA was tested by administering doses of 0.006, 0.019, 0.06 or 0.19 mg/kg by oral gavage (p.o.) 30 minutes before testing. […]
Exploratory activity was monitored and quantified using open field activity systems (hardware and software) purchased from Med Associates. […]
Statistical analysis was made of total distance traveled over the 5 minutes test period for a spontaneous locomotor activity using one-way analysis ANOVA and Turkey's multiple-range analysis. All values are expressed as mean and SD.

CF-1 male mice = assay: Haloperidol-induced catalepsy model of EPS; type: in vivo, mouse
Excerpt: III. Blockade of Haloperidol-Induced Catalepsy
Haloperidol-induced catalepsy model of EPS: Haloperidol is a typical or first-generation antipsychotic drug that while effective is prone to produce extrapyramidal symptoms (EPS) in humans. Other antipsychotic drugs (e.g. chlorpromazine, risperidone) can also cause EPS in patients and this side effect can limit the use of these drugs. In rodents, drug-induced catalepsy (a trance-like state of waxy immobility) can be used to assess the risk of EPS for antipsychotic drugs. Haloperidol reliably induces catalepsy in mice and rats. Test compounds that reduce catalepsy in haloperidol-treated rats may reduce antipsychotic drug-induced EPS.
Haloperidol-induced catalepsy in mice model: CF-1 male mice (Charles River, 20-30 gm, 10 mice per dose) were dosed orally with compound (b) at 0.06, 0.19, 0.6 and 1.9 mg/kg or vehicle (distilled water). Thirty minutes later, all mice were dosed with 2 mg/kg of haloperidol s.c. At 60 minutes and 4 hours after haloperidol dosing, the experimenter gently placed both forepaws of each animal on a metal bar (4 mm in diameter) that was fixed horizontally 5 cm above the test floor. The length of time (in seconds) during which each mouse maintained the initial forepaw bar position was recorded (cataleptic pose). Maximum cut-off time was 60 seconds. The same experimental design was performed on two consecutive days, and results were combined from both experiments. Therefore, the final results are from groups of 20 mice.

## CNCC/C=C/c1cccnc1 [RJR 2403]
rodent
  effect on haloperidol-induced catalepsy: did not significantly worsen haloperidol-induced catalepsy, they did not reduce it either

## C[C@H](N)Cc1ccccc1 [Amphetamine, D-amphetamine]
Male Long Evans rats; D-amphetamine 1 mg/kg s.c. alone, p<0.001
  locomotor activity in habituated rats: significantly increased

## OCCOCCN1CCN(C2=Nc3ccccc3Sc3ccccc32)CC1 [quetiapine, 11-[4-[2-(2-hydroxyethoxy)ethyl]-1-piperazinyl]dibenzo[b,f][1,4]thiazepine]
Male Long Evans rats; quetiapine alone 10 mg/kg s.c.
  attenuation of amphetamine-induced locomotor activity: did not significantly attenuate
Male Long Evans rats; quetiapine alone 10 mg/kg s.c., listed as Quetiapine
  attenuation of amphetamine-induced locomotor activity: not
Male Long Evans rats; quetiapine alone 20, 40 and 60 mg/kg s.c.
  attenuation of amphetamine-induced locomotor activity: significantly attenuated
Male Long Evans rats; quetiapine alone s.c.
  threshold for significantly reducing D-amphetamine-induced locomotor activity: 20 mg/kg

## CN1CCCC1c1cccnc1 (centres unmarked) [nicotine]
rodent
  effect on haloperidol-induced catalepsy: did not significantly worsen haloperidol-induced catalepsy, they did not reduce it either
rodent; Sanberg et al. 1993
  effect on catalepsy in rodent: can worsen catalepsy

## CN[C@@H](C)C/C=C/c1cncc(OC(C)C)c1.O=C(O)c1ccc(O)cc1 [Compound b, (2S)-(4E)-N-Methyl-5-[3-(5-isopropoxypyridin)yl]-4-penten-2-amine p-hydroxybenzoate]
male, Long Evans rats; Compound b 0.19 mg/kg p.o. administered before quetiapine 40 mg/kg s.c. (combination)
  reduction in sLMA compared to vehicle-vehicle controls: did not result in a significant reduction in sLMA
male, Long Evans rats; Compound b 0.19 mg/kg p.o. and then vehicle
  suppression of sLMA: no significant suppression of sLMA
male, Long Evans rats; Compound b alone, 0.006, 0.019, 0.06 and 0.19 mg/kg p.o., 30 min before testing, 5 min test
  effect on sLMA (total distance traveled): no significant effect
Male Long Evans rats; Compound b alone 0.19 mg/kg p.o.
  reduction of D-amphetamine-induced locomotor activity: did not significantly reduce
Male Long Evans rats; combination: Compound b 0.19 mg/kg p.o. with quetiapine 10 mg/kg s.c., vs D-amphetamine alone group
  reduction of D-amphetamine-induced locomotor activity: did significantly reduce
Male Long Evans rats; combination: Compound b 0.019 or 0.06 mg/kg p.o. with quetiapine 10 mg/kg s.c.
  reduction of D-amphetamine-induced locomotor activity: did not significantly reduce
CF-1 male mice; 60 minute time point, Compound b 0.06, 0.19, 0.6 and 1.9 mg/kg p.o. 30 min before haloperidol 2 mg/kg s.c., P<0.05
  reduction of haloperidol induced catalepsy: reduced haloperidol induced catalepsy
CF-1 male mice; 4 hour time point, 1.9 mg/kg p.o. (only this dose) before haloperidol 2 mg/kg s.c.
  reduction of haloperidol induced catalepsy: significant reduction

## O=C(CCCN1CCC(O)(c2ccc(Cl)cc2)CC1)c1ccc(F)cc1 [Haloperidol, haloperidol]
CF-1 male mice; haloperidol 2 mg/kg s.c. alone
  mice with catalepsy of up to 60 seconds: 60-90 % of mice
